The results in this text go back to publication PMC9203742 (Nature Communications, 2022).

“And” between values parts separate entries of the source, which are not always exact repeats. Equal values may be shown once.

Holding throughout (assay type): cell-based
One test concerns the target T1, mGlu1 E60H/N264H mutant (Rattus norvegicus, UniProt P23385, E60H/N264H).
T1 construct: expressed in transfected cells; host or cells: HEK293
Put plainly: Fura-2 Ca2+ imaging in HEK293 cells expressing mGlu1 E60H/N264H. The note with it: 10 μM metal ion or metal complex.

The target in the next test is T2, mGlu1 P57H/N264H mutant (Rattus norvegicus, UniProt P23385, N264H/P57H).
T2 construct: expressed in transfected cells; host or cells: HEK293
T2 sequence (P23385 19-1199 P57H/N264H): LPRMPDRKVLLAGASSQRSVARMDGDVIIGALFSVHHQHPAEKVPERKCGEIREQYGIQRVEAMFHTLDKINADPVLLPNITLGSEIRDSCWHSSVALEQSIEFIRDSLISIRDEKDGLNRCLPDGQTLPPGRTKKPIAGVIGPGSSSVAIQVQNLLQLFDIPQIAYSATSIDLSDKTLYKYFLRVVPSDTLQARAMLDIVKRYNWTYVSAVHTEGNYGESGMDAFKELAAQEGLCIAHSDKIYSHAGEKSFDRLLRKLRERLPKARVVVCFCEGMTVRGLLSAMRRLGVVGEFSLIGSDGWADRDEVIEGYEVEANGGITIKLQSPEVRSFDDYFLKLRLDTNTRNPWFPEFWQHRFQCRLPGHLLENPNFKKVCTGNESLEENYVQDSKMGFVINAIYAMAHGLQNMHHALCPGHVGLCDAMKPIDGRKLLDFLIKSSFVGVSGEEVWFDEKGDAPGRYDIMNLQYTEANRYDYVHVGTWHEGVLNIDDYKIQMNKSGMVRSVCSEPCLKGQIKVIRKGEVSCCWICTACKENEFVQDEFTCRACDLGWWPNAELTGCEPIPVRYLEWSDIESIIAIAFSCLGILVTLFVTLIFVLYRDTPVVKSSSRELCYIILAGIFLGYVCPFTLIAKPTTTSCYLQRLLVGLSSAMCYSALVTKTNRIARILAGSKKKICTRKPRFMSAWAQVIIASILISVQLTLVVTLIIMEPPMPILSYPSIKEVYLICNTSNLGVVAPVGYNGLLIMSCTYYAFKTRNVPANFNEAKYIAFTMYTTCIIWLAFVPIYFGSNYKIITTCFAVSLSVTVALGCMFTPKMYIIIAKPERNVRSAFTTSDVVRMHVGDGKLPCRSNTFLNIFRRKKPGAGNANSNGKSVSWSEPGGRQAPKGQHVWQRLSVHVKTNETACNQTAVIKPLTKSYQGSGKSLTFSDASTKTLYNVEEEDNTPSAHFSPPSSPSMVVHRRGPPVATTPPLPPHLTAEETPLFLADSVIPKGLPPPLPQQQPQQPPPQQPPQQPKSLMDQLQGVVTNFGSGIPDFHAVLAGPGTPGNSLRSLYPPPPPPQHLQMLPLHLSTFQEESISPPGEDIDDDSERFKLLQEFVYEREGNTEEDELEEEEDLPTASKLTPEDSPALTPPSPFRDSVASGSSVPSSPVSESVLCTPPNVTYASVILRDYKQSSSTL
Put plainly: Fura-2 Ca2+ imaging in HEK293 cells expressing mGlu1 P57H/N264H. The settings on record: 10 μM metal ion or metal complex.

For the next test, the target named is T3, mGlu1 A59H/N264H mutant (Rattus norvegicus, UniProt P23385, A59H/N264H).
T3 construct: expressed in transfected cells; host or cells: HEK293
T3 sequence (P23385 19-1199 A59H/N264H): as the sequence (P23385 19-1199 P57H/N264H) above, with H39P, A41H counted along it
Put plainly: Fura-2 Ca2+ imaging in HEK293 cells expressing mGlu1 A59H/N264H. The note with it: 10 μM metal ion or metal complex.

The target in another test is T4, mGlu1 P58H/N264H mutant (Rattus norvegicus, UniProt P23385, N264H/P58H).
T4 construct: expressed in transfected cells; host or cells: HEK293
T4 sequence (P23385 19-1199 P58H/N264H): as the sequence (P23385 19-1199 P57H/N264H) above, with H39P, P40H counted along it
Put plainly: Fura-2 Ca2+ imaging in HEK293 cells expressing mGlu1 P58H/N264H. The settings on record: 10 μM metal ion or metal complex.

The next test concerns the target T5, mGlu1 K61H/N264H mutant (Rattus norvegicus, UniProt P23385, K61H/N264H).
T5 construct: expressed in transfected cells; host or cells: HEK293
Put plainly: Fura-2 Ca2+ imaging in HEK293 cells expressing mGlu1 K61H/N264H. The note with it: 10 μM metal ion or metal complex.

The next test deals with T6, mGlu1(N264H) mutant (Rattus norvegicus, UniProt P23385, N264H).
T6 construct: expressed in transfected cells; host or cells: HEK293
T6 sequence (P23385 19-1199 N264H): as the sequence (P23385 19-1199 P57H/N264H) above, with H39P counted along it
Put plainly: Fura-2 Ca2+ imaging in HEK293 cells expressing mGlu1(N264H). The settings on record: for Receptor activation (Ca2+ response, Δratio): 3 μM Pd(bpy) derivative; for Ca2+ response to Pd complex, individual cells #1-#20 (Fig.4e): single-cell values.

T1 sequence (P23385 19-1199 E60H/N264H): as the sequence (P23385 19-1199 P57H/N264H) above, with H39P, E42H counted along it
T5 sequence (P23385 19-1199 K61H/N264H): as the sequence (P23385 19-1199 P57H/N264H) above, with H39P, K43H counted along it

Regarding `[Cd+2]` [Cd^2+, reference compound], the “Receptor activation ([Ca2+]i change, Δratio)” value on mGlu1 E60H/N264H mutant, at mGlu1 P57H/N264H mutant, at mGlu1 A59H/N264H mutant, on mGlu1 P58H/N264H mutant and at mGlu1 K61H/N264H mutant was “failed to activate” throughout.
Consider `O=S(=O)([O-])CCCOCc1ccnc(-c2cc(COCCCS(=O)(=O)[O-])ccn2)c1.[Cl][Pd][Cl].[Na+].[Na+]` [Pd(di-sulfo-bpy)], for which, at mGlu1(N264H) mutant, the “Receptor activation (Ca2+ response, Δratio)” value is listed as “failed to activate”; the “Ca2+ response to Pd complex, individual cells #1-#20 (Fig.4e)” value is 0.01072 and 0.008046 and 0.01006 and 0.04502 and 0.003731 and 0.0195 and 0.007615 and 0.1169 and -0.002485 and 0.009585 and 0.3142 and 0.02231 and 0.005731 and 0.02578 and 0.01671.
In the case of `OCc1ccnc(-c2cc(CO)ccn2)c1.[Cl][Pd][Cl]` [Pd(OH-bpy)], the “Ca2+ response, concentration dependence (Fig.4f)” value was -0.02066 at mGlu1(N264H) mutant (0.01 µM Pd complex); 0.003658 at mGlu1(N264H) mutant (0.03 µM Pd complex); 0.0176 at mGlu1(N264H) mutant (0.1 µM Pd complex); 0.1704 at mGlu1(N264H) mutant (0.3 µM Pd complex); 0.2068 on mGlu1(N264H) mutant (1 µM Pd complex); 0.4989 on mGlu1(N264H) mutant (3 µM Pd complex). Besides, the “Ca2+ response, concentration dependence (Fig.4f)” value was found to be 0.5148 at mGlu1(N264H) mutant (10 µM Pd complex) and 0.5694 at mGlu1(N264H) mutant (30 µM Pd complex). In addition, the “Receptor activation (Ca2+ response, Δratio)” value on mGlu1(N264H) mutant was “successfully activated”. For the same compound, at mGlu1(N264H) mutant (HEK293 cells, Fura-2, read-out: EC50, Ca2+ response (Δratio)), the EC50 was determined as 1100 nM. Further, the “Ca2+ response to Pd complex, individual cells #1-#20 (Fig.4e)” value on mGlu1(N264H) mutant is 0.09363 and -0.01751 and 0.927 and 0.3494 and 0.8377 and 0.7197 and 0.003631 and 0.04434 and -0.01218 and -0.01678 and 1.414 and 0.5875 and -0.01008 and 0.646 and 0.8168 and 0.6391 and 0.4133 and 1.082 and 0.03592 and 1.1834.
Consider `[Ni+2]` [Ni^2+, reference compound], for which the “Receptor activation ([Ca2+]i change, Δratio)” value on mGlu1 E60H/N264H mutant, on mGlu1 P57H/N264H mutant, on mGlu1 A59H/N264H mutant, at mGlu1 P58H/N264H mutant and at mGlu1 K61H/N264H mutant was “failed to activate” in each case.
Take `[Cu+2]` [Cu^2+, reference compound]: the “Receptor activation ([Ca2+]i change, Δratio)” value on mGlu1 E60H/N264H mutant, at mGlu1 P57H/N264H mutant, on mGlu1 A59H/N264H mutant, on mGlu1 P58H/N264H mutant and at mGlu1 K61H/N264H mutant was “failed to activate” throughout.
